The target of this assay is T1, TNF-α (recombinant mouse TNF-α) (Mus musculus, UniProt P06804).
T1 construct: recombinant, purchased from Sigma; amine-coupled to CM5 chip
T1 sequence (P06804 80-235): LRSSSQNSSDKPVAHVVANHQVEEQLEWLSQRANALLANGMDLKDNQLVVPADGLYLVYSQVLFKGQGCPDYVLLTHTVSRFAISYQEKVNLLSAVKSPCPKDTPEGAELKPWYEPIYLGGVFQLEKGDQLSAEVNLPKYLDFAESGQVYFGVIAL
The assay is described as follows: SPR (BIAcore T200, TNF-α immobilised on CM5, […] model). Format: binding.

Usually Kd stands for the free concentration of one partner at which half of the binding sites on the other are occupied at equilibrium, for simple one-to-one binding.

SMILES strings stand for the structures.

On to `O=c1c(O)c(-c2ccc(O)c(O)c2)oc2cc(O)cc(O)c12` [H11, Quercetin], for which the Kd is 35 µM.
For the molecule `Oc1ccc(CC2NCCc3cc(O)c(O)cc32)cc1` (centres unmarked) [S39, Higenamine], the Kd is 67 µM.

These data come from paper PMC4837341, “Drug target identification using network analysis: Taking active components in Sini decoction as an example” (Scientific Reports, 2016).
